Source: US5786332A, “Cytokine restraining agents and methods of use in pathologies and conditions associated with altered cytokine levels” (Trega Biosciences, Inc., priority 1995, dated 1998)

How the values were obtained:
TNF-α = experiment: Reduction of LPS-induced TNF levels in mice (IP dosing, ELISA); assay type: in vivo; conditions: 30 μg/mouse IP; LPS 5 mg/kg IP; vs untreated control mice
Procedure: Balb/c female mice weighing approximately 20 g were placed into two groups, a control group and a treated group. Five mg/kg of LPS in 0.9% saline was administered by intraperitoneal (IP) injection into the control mice. Mice in the treated group were first injected IP with 30 μg EX-2 or 150 μg EX-3 in saline, then, one mn after EX-2 or EX-3 was administered, the mice received LPS as described for the control group.
Blood samples were collected from the orbital sinus of treated and control mice at various times up to four hr after LPS was administered. The plasma was separated by centrifugation at 3000×g for 5 min, then diluted with four volumes of 1× phosphate buffer saline (pH 7.4) containing 1% bovine serum albumin. A 100 μl sample of serum was assayed by ELISA for TNF-α (Genzyme; Cambridge Mass.).
The mean (+/-SEM) TNF-α level in six mice from each group was determined and the percent reduction in TNF levels was calculated.

Sprague-Dawley rats = experiment: Renal ischemia-reperfusion injury; assay type: in vivo; conditions: I/R + EX-2 (50 or 500 μg/kg iv, not specified)
Procedure: A. Ischemia-Reperfusion Injury: These experiments were performed to determine if a peptide which has cytokine restraining properties, EX-2, can ameliorate the reperfusion-induced vasoconstriction and reduction in glomerular filtration rate that results from clamping of the renal artery. As a comparison, the NSAID ketorolac was utilized in the same model.
Sprague-Dawley rats (250-300 g) were anesthetized with Inactin® (120 mg/kg). After deep anesthesia was assured, the rats were cannulated in the trachea with polyethylene (PE) tubing (PE 240), jugular vein, femoral artery, bladder (PE 50 for previous 3 cannulations), and left ureter (stretched PE 50). Once cannulation was completed, a 2 cm flank incision above the left kidney was performed and the renal pelvis and vascular bundle were exposed. […]
Just prior to clamping, EX-2 (50 or 500 μg/kg), ketorolac (KETO, 1 mg/kg), or vehicle was administered intravenously (iv) After 1 hr of clamping (ischemia), the clamp was gently removed with care taken to avoid damaging either the renal artery or nerves. […] After 60 min of reperfusion, glomerular filtration rate (GFR), renal plasma flow (RPF) and renal vascular resistance (RVR) were assessed in two 30 min collection periods. […] Contralateral renal function was utilized to determine the stability of the rat's renal function during the measured period.

[1] = system: inducible nitric oxide synthase (INOS); experiment: Inducible nitric oxide synthase induction in rat aorta smooth muscle cells (cGMP RIA); assay type: cell-based; conditions: RASMC; 0.1 or 1 μM EX-2 before LPS, IL-1β or TNF-α (not specified which)
Procedure: A. Inducible Nitric Oxide Synthase (INOS): Rat aorta smooth muscle cells (RASMC) were isolated from male rats (325-350 g) using the previously published procedures of Gelsterfer et al., Circ. Res. 62:749-756 (1988), which is incorporated herein by reference. Cells were positively identified as smooth muscle cells by indirect immunofluorescent staining for anti-α-actin, using a mouse anti-α-actin antibody and anti-mouse IgG FITC conjugate. Cells were grown in T-75 tissue culture flasks (Corning Delbelco's Glass, Inc.; Corning, N.Y.) in 50% F12 and 50% Delbelco's Modified Eagle Medium (DMEM) supplemented with 10% bovine serum, 0.2 g/l L-glutamine, penicillin (100 U/ml) and streptomycin (0.1 mg/ml).
Cells between passages 1-5 were pretreated with one of the following: vehicle, LPS (1 μg/ml), IL-1β (10 U/ml), or TNF-α (100 U/ml) for 6 hr. […] Accumulation of cGMP was determined following exposure to 0.3 mM 3-isobutyl-1-methyl xanthine (IBMX) in the presence or absence of 1 mM L-arginine. […] The HCl extract was analyzed for cGMP by RIA and the NaOH-solubilized cell remnants were used for protein determination.
Male Sprague-Dawley rats were anesthetized with 55 mg/kg pentobarbital IP. […] RASMC were incubated with plasma from control or EX-2-treated animals and the ability of plasma components to inhibit the induction of INOS by LPS or IL-1β was determined as above. […]

## Ac-Nle-Gln-His-(D)Phe-Arg-(D)Trp-Gly-NH2 [EX-2]
TNF-α
  Reduction in TNF levels: 50%
Sprague-Dawley rats; 1 hr clamp, after 60 min reperfusion, I/R + PBS 0.2 ± 0.1
  GFR (glomerular filtration rate): 0.5 ± 0.1 ml/mm
Sprague-Dawley rats; I/R + PBS 0.8 ± 0.2
  RPF (renal plasma flow): 2.3 ± 0.3 ml/mm
[1]
  % Reduction of induced increase in cGMP (pmol/100 mg/5 min), INOS: 60%
